The text below walks through data of ChEMBL document CHEMBL5214920, “Emerging impact of triazoles as anti-tubercular agent” (Eur J Med Chem, 2022).

For assay [1], the system named is Mycobacterium tuberculosis. Put plainly: Antitubercular activity against Mycobacterium tuberculosis H37Rv assessed as bacterial growth inhibition measured after 7 days by broth microdilution assay. The assay is classed as functional. Conditions: 168 h, time 7 day. Background: Broth dilution looks for growth in wells or tubes with falling amounts of substance.
In assay [2] the test system is Mycobacterium tuberculosis. Description: Antitubercular activity against Mycobacterium tuberculosis H37Rv ATCC 27294 assessed as bacterial growth inhibition measured after 48 hrs by broth dilution method. Type of assay: functional.
Assay [3] deals with Mycobacterium tuberculosis. Put plainly: Antitubercular activity against Mycobacterium tuberculosis H37Rv ATCC 25618 assessed as bacterial growth inhibition. Type of assay: functional.
Assay [4] relates to Mycobacterium tuberculosis. Description: Antitubercular activity against Mycobacterium tuberculosis spec. 210 assessed as bacterial growth inhibition. The assay is classed as functional.
The test system of assay [5] is Mycobacterium tuberculosis. Put plainly: Antitubercular activity against Mycobacterium tuberculosis spec. 192 assessed as bacterial growth inhibition. Type of assay: functional.
Assay [6] relates to Mycobacterium tuberculosis. Put plainly: Antitubercular activity against Mycobacterium tuberculosis H37Rv ATCC 27294 assessed as bacterial growth inhibition by agar dilution method. The assay is classed as functional. For orientation: Agar dilution tests growth on a series of plates holding different concentrations.
Assay [7] concerns Mycobacterium tuberculosis. Description: Antitubercular activity against dormant stage of Mycobacterium tuberculosis H37Ra ATCC 25177 assessed as bacterial growth inhibition by XTT assay. The assay is classed as functional. For orientation: Tetrazolium assays rely on reduction of a dye to a coloured formazan, in cell work by metabolically active cells.
In assay [8] the test system is Mycobacterium tuberculosis. Put plainly: Antitubercular activity against active stage of Mycobacterium tuberculosis H37Ra ATCC 25177 assessed as bacterial growth inhibition by XTT assay. The assay is classed as functional.
Assay [9] has as its system Mycobacterium tuberculosis. Description: Antitubercular activity against Mycobacterium tuberculosis H37Rv assessed as reduction in relative light units at 25 ug/ml incubated for 4 hrs followed by addition of D-luciferin by luciferase based luminometer analysis relative to control. Details: scale not given: the % may be the effect or the level left. The note with it: dose 25 µg/ml. Type of assay: functional.

The test system of assay [10] is Mycobacterium tuberculosis. Put plainly: Antitubercular activity against Mycobacterium tuberculosis H37Rv assessed as reduction in relative light units at 5 ug/ml incubated for 4 hrs followed by addition of D-luciferin by luciferase based luminometer analysis relative to control. Type of assay: functional. Details: scale not given: the % may be the effect or the level left. Conditions: dose 5 µg/ml.

Assay [11] deals with Mycobacterium tuberculosis. Put plainly: Antitubercular activity against Mycobacterium tuberculosis H37Rv ATCC 27294 assessed as bacterial growth inhibition. Type of assay: functional.
The test system of assay [12] is Mycobacterium tuberculosis. Put plainly: Antitubercular activity against Mycobacterium tuberculosis mc 2 6230 assessed as bacterial growth inhibition. Type of assay: functional.
The target in assay [13] is DNA gyrase subunit B (Mycobacterium smegmatis, UniProt P0C559). Put plainly: Inhibition of Mycobacterium smegmatis GyrB incubated for 120 mins in presence of ATP by malachite green r staining based assay. Details: species or system Mycolicibacterium smegmatis.
For assay [14], the target named is DNA gyrase subunit A/DNA gyrase subunit B (Mycobacterium tuberculosis (strain ATCC 25618 / H37Rv), UniProt P9WG45+P9WG47). Put plainly: Inhibition of Mycobacterium tuberculosis DNA gyrase supercoiling activity. The assay is classed as protein-complex assay.
In assay [15] the test system is Mycobacterium tuberculosis. Put plainly: Antitubercular activity against Mycobacterium tuberculosis H37Rv assessed as bacterial growth inhibition measured after 7 days by MABA method. The assay is classed as functional. The note with it: 168 h, time 7 day.
Assay [16] has as its system Mycobacterium tuberculosis. Put plainly: Antitubercular activity against Mycobacterium tuberculosis mc 2 7000 assessed as bacterial growth inhibition. Type of assay: functional.
The test system of assay [17] is Mycobacterium tuberculosis. Put plainly: Antitubercular activity against Mycobacterium tuberculosis H37Rv assessed as bacterial growth inhibition. The assay is classed as functional.
The test system of assay [18] is Mycobacterium tuberculosis. Description: Antitubercular activity against Mycobacterium tuberculosis H37Rv assessed as bacterial growth inhibition by micro broth dilution assay. Type of assay: functional.
Assay [19] concerns Mycobacterium tuberculosis. Put plainly: Antitubercular activity against Mycobacterium tuberculosis H37Rv assessed as bacterial growth inhibition measured after 5 days by MABA method. The assay is classed as functional. The note with it: 120 h, time 5 day.
In assay [20] the test system is Mycobacterium tuberculosis. Description: Antitubercular activity against Mycobacterium tuberculosis H37Rv ATCC 27294 assessed as bacterial growth inhibition measured after 7 days by MABA method. Type of assay: functional. Conditions: H37Rv ATCC 27294, 168 h, time 7 day.
The subject of assay [21] is Mycobacterium tuberculosis. Put plainly: Antitubercular activity against Mycobacterium tuberculosis H37Rv ATCC 27294 assessed as bacterial growth inhibition measured after 5 days by MABA method. The assay is classed as functional. The note with it: H37Rv ATCC 27294, 120 h, time 5 day.
The subject of assay [22] is Mycobacterium tuberculosis. Description: Antitubercular activity against Mycobacterium tuberculosis H37Rv ATCC 27294 assessed as bacterial growth inhibition measured after 10 days by MABA method. The assay is classed as functional. The note with it: H37Rv ATCC 27294, 240 h, time 10 day.
The subject of assay [23] is Mycobacterium tuberculosis. Put plainly: Antitubercular activity against Mycobacterium tuberculosis H37Rv assessed as bacterial growth inhibition measured after 7 days by direct susceptibility assay. The assay is classed as functional. Conditions: 168 h, time 7 day.
Assay [24] relates to Mycobacterium tuberculosis. Description: Antitubercular activity against Mycobacterium tuberculosis H37Rv assessed as bacterial growth inhibition measured after 24 hrs by agar micro dilution method. Type of assay: functional.

In brackets after ≈: the same amount, converted by molar mass.

Sequence of DNA gyrase subunit A/DNA gyrase subunit B (P9WG45 whole entry): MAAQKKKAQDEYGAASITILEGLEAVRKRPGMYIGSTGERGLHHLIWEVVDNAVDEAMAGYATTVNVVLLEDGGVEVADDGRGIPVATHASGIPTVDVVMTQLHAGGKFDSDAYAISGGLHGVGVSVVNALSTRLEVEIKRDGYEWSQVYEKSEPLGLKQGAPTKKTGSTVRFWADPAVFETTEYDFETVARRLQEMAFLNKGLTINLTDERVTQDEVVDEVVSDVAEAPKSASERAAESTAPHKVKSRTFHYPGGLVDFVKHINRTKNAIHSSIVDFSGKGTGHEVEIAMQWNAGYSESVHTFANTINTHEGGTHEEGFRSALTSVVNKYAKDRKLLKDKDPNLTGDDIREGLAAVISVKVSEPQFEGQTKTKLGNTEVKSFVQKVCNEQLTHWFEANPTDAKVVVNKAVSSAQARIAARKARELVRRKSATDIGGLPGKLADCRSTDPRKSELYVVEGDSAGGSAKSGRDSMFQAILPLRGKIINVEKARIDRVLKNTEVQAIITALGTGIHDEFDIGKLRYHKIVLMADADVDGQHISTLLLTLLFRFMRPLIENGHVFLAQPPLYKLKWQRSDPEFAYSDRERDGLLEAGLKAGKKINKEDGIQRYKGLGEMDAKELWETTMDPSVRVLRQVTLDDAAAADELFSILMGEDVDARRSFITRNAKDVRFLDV
Sequence of DNA gyrase subunit A/DNA gyrase subunit B (P9WG47 whole entry): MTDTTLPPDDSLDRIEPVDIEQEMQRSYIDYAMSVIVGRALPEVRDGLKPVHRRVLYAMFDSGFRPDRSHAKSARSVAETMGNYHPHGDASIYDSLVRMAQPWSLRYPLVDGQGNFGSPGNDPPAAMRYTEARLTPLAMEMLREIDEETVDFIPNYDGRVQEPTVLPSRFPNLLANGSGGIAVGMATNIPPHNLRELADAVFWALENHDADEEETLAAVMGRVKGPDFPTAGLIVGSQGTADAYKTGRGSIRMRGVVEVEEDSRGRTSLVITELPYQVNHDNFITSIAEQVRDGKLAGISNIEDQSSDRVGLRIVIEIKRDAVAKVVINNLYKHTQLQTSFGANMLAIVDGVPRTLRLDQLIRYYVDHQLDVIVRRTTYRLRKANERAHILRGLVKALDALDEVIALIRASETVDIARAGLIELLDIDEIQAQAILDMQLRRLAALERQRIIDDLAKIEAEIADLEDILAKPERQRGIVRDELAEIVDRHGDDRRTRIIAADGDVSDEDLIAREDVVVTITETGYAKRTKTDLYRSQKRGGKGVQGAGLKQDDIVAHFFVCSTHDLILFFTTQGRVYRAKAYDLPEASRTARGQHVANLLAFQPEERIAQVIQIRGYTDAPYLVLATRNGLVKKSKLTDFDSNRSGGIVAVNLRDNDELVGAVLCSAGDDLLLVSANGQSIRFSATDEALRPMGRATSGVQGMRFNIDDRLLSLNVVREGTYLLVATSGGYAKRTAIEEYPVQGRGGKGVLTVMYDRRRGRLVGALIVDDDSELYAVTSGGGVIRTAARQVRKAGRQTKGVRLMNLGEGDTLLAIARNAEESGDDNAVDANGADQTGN
Sequence of DNA gyrase subunit B (P0C559 whole entry): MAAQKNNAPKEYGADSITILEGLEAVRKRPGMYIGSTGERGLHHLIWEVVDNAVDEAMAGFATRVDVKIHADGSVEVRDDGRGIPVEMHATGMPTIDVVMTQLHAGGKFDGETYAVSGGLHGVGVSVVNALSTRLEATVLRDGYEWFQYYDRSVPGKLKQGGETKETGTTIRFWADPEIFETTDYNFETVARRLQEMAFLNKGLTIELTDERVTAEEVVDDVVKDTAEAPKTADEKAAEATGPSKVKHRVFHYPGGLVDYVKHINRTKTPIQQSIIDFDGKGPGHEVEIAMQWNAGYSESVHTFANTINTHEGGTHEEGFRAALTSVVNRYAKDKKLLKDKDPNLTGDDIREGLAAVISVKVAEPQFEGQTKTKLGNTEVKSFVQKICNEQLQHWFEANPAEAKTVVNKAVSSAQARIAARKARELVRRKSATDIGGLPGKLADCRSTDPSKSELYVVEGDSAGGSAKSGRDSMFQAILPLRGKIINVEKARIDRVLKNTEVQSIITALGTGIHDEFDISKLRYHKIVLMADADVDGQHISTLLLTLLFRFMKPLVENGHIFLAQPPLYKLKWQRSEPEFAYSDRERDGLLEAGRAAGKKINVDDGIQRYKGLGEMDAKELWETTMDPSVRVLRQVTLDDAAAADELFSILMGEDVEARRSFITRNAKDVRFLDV

For `O=[N+]([O-])c1ncn(CCCCNS(=O)(=O)c2ccc(Cl)s2)n1`, in [1], the MIC (commonly the least concentration at which growth counts as inhibited) worked out at 3.13 µM (≈ 1.15 µg/mL).
`O=[N+]([O-])c1ncn(CCCCNS(=O)(=O)c2cc(Cl)c(Cl)s2)n1`: in assay [1], the MIC amounted to 1.56 µM (≈ 0.624 µg/mL).
Turning to `C[C@]1(COc2ccc(-n3cc(COc4ccc(OC(F)(F)F)cc4)nn3)cc2)Cn2cc([N+](=O)[O-])nc2O1`, the MIC in assay [2] turned out to be 0.23 µM (≈ 0.122 µg/mL).
Consider `COc1ccc(-n2cc(Cn3nc(-c4ccccc4)c4c3CCN(C(=O)Nc3ccccc3)C4)nn2)cc1`, for which the MIC in assay [3], in [4] and in assay [5] was 24.7 µM (≈ 12.5 µg/mL) throughout.
`CC1(C)OC2C3OC(C)(C)O[C@H]3C(Cn3cc(N4C(=O)CCCC4=O)nn3)O[C@@H]2O1` (some centres not stated): the MIC in assay [6] is 3.12 µg/mL (≈ 7.4 µM).
Turning to `Nc1ccc(-c2n[nH]c(=S)[nH]2)cc1`, the MIC in assay [7] is 0.46 µg/mL (≈ 2.39 µM); in [8] it was more than 30 µg/mL.
For `c1ccc(-c2cn(Cc3ccc4ccccc4n3)nn2)cc1`, the results for the Activity in assay [9] and in [10] were 80.79% and 58.2%, respectively.
Take `CCOC(=O)c1c(-n2cc(-c3ccc4cc(OC)ccc4c3)nn2)c2ccccc2n(C)c1=O`: the MIC in assay [11] was 3.13 µg/mL (≈ 6.89 µM).
As to `O=[N+]([O-])c1ccc(-c2n[nH]c(=S)[nH]2)cc1`, the MIC amounted to 0.64 µg/mL (≈ 2.88 µM) in assay [7] and 9.05 µg/mL (≈ 40.7 µM) in assay [8].
As for `CCCCCc1ccc(-c2cn(-c3c(C(=O)OCC)c(=O)n(C)c4ccccc34)nn2)cc1`, the MIC in [11] came out at 3.13 µg/mL (≈ 7.04 µM).
Turning to `COc1ccc2c(c1)/C(=N/NC(=O)c1ccncc1)C(=O)N2Cc1cn(-c2ccccc2/C=N\NC(=O)c2ccncc2)nn1`, the MIC99 (usually the lowest concentration that inhibits either 99% of growth or 99% of the strains tested, depending on the study) in assay [12] stood at 0.36 µg/mL (≈ 0.599 µM).
Consider `COc1ccc2cc(-n3cc(COc4nc(-c5ccccn5)sc4C(N)=O)nn3)c(=O)oc2c1`, for which the 50% inhibitory concentration (IC50) (in general, the concentration that gives 50% inhibition) is 440 nM in [13] and 500 nM in assay [14]. Further, the MIC in assay [15] came to 6.5 µM.
Consider `CC1(C)OC2C3OC(C)(C)O[C@H]3C(Cn3cc(N4CCCC4=O)nn3)O[C@@H]2O1` (some centres not stated), for which, in assay [6], the MIC was 3.12 µg/mL (≈ 7.92 µM).
Regarding `CCOC(=O)c1c(-n2cc(-c3ccc(C)cc3)nn2)c2ccccc2n(C)c1=O`, in [11], the MIC turned out to be 3.13 µg/mL (≈ 8.06 µM).
Regarding `O=C(N/N=C\c1ccccc1-n1cc(CN2C(=O)/C(=N\NC(=O)c3ccncc3)c3cc(Cl)ccc32)nn1)c1ccncc1`, the MIC99 in [12] was 0.36 µg/mL (≈ 0.595 µM).
With `O=C(OCc1cn(-c2ccccc2)nn1)c1c[n+]([O-])c2ccc(Cl)cc2[n+]1[O-]`, the MIC in assay [16] stood at 30.4 µg/mL; in assay [12] it was 30.4 µg/mL (≈ 76.3 µM); in [17] it was 30.4 µg/mL (≈ 76.3 µM).
Regarding `CC1(C)OC2C3OC(C)(C)O[C@H]3C(Cn3cc(N4C(=O)CCC4=O)nn3)O[C@@H]2O1` (some centres not stated), the MIC in assay [6] amounted to 3.12 µg/mL (≈ 7.65 µM).
Take `CC(=O)OC[C@H]1O[C@@H](Oc2cn(Cc3ccc4ccccc4n3)nn2)[C@H](OC(C)=O)[C@@H](OC(C)=O)[C@H]1OC(C)=O`: the Activity in assay [9] stood at 78.37%; in assay [10], 76.41%.
As to `CC[C@@H](CO)NCCN[C@@H](CC)CO` [ETHAMBUTOL], the MIC in assay [18] was 1 µg/mL; in assay [19], 1.56 µg/mL (≈ 7.64 µM); in assay [20] it was 7.64 µM (≈ 1.56 µg/mL); in assay [1], 6.25 µM (≈ 1.28 µg/mL); in [15], 1.56 µg/mL; in assay [21] it was 7.63 µM.
`NNC(=O)c1ccncc1` [ISONIAZID]: the MIC in assay [18] is 0.05 µg/mL; in assay [7] it was 0.043 µg/mL (≈ 0.314 µM); in assay [22], more than 300 µg/mL; in [23], 0.075 µg/mL (≈ 0.547 µM); in assay [16], 2.92 µM; in [21], 0.7 µM. Also, in assay [8], the MIC turned out to be 0.074 µg/mL (≈ 0.54 µM).
Turning to `CN[C@@H]1[C@H](O[C@H]2[C@H](O[C@H]3[C@H](O)[C@@H](O)[C@H](N=C(N)N)[C@@H](O)[C@@H]3N=C(N)N)O[C@@H](C)[C@]2(O)C=O)O[C@@H](CO)[C@H](O)[C@H]1O` [STREPTOMYCIN], the MIC in assay [19] is more than 6.25 µg/mL; in [22] it was 2 µg/mL (≈ 3.44 µM); in assay [24], 3.12 µg/mL (≈ 5.37 µM); in [21], 6.25 µg/mL.
`Cc1ccc(-c2nc3ccc(C)cn3c2CC(=O)N(C)C)cc1` [ZOLPIDEM]: the results for the MIC in assay [21] and in [2] were 3.12 µg/mL and 10 µM (≈ 3.07 µg/mL), respectively.
